Reference: patent publication US12637454B2, “Heterocyclic monoacylglycerol lipase (MAGL) inhibitors” (Hoffmann-La Roche Inc., priority 2019, dated 2026)

Molecular target: T1, MAGL (Homo sapiens, UniProt Q99685)
T1 sequence (Q99685 1-303): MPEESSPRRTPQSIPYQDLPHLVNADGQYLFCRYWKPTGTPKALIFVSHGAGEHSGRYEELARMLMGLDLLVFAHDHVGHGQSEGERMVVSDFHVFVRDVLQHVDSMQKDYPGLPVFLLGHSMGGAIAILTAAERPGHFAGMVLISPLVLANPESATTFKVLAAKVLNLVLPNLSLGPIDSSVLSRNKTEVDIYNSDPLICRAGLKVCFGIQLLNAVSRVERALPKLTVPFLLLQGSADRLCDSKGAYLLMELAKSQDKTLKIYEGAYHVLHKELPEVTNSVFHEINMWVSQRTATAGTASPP
Test: 2-AG assay (MAGL inhibitory activity, hydrolysis of 2-arachidonoylglycerol followed by mass spectrometry)
Type: biochemical
Conditions: 50 pM MAGL, 8 μM 2-arachidonoylglycerol, 15 min preincubation, 30 min incubation at RT
Protocol: Compounds were profiled for MAGL inhibitory activity by determining the enzymatic activity by following the hydrolysis of the natural substrate 2-arachidonoylglycerol (2-AG) resulting in arachidonic acid, which can be followed by mass spectrometry. This assay is hereinafter abbreviated “2-AG assay”.
The 2-AG assay was carried out in 384 well assay plates (PP, Greiner Cat #784201) in a total volume of 20 μL. Compound dilutions were made in 100% DMSO (VWR Chemicals 23500.297) in a polypropylene plate in 3-fold dilution steps to give a final concentration range in the assay from 12.5 μM to 0.8 pM. 0.25 μL compound dilutions (100% DMSO) were added to 9 μL MAGL in assay buffer (50 mM TRIS (GIBCO, 15567-027), 1 mM EDTA (Fluka, 03690-100 mL), 0.01% (v/v) Tween. After shaking, the plate was incubated for 15 min at RT. To start the reaction, 10 μL 2-arachidonoylglycerol in assay buffer was added. The final concentrations in the assay was 50 pM MAGL and 8 μM 2-arachidonoylglyerol. After shaking and 30 min incubation at RT, the reaction was quenched by the addition of […] of ACN containing 4 μM of d8-arachidonic acid. The amount of arachidonic acid was traced by an online SPE system (Agilent Rapidfire) coupled to a triple quadrupole mass spectrometer (Agilent 6460). A C18 SPE cartridge (G9205A) was used in an ACN/water liquid setup. The mass spectrometer was operated in negative electrospray mode following the mass transitions 303.1→259.1 for arachidonic acid and 311.1→267.0 for d8-arachidonic acid. The activity of the compounds was calculated based on the ratio of intensities [arachidonic acid/d8-arachidonic acid].

SMILES	IC50
Cc1c[nH]nc1-c1cccc(C(=O)N2CCN3C[C@@](O)(c4ccc(Cl)cc4)CC[C@@H]3C2)c1 [Example 17]	255 nM
COc1cccc(C(=O)N2CCN3C[C@@](O)(c4ccc(C(F)(F)F)cn4)CC[C@@H]3C2)c1Cl [Example 18]	97.2 nM
COc1cccc(C(=O)N2CCN3C[C@](O)(c4ccc(C(F)(F)F)cn4)CC[C@H]3C2)c1Cl [Example 19, [(7S,9aS)-7-hydroxy-7-[5-(trifluoromethyl)pyridin-2-yl]-3,4,6,8,9,9a-hexahydro-1H-pyrido[1,2-a]pyrazin-2-yl]-(2-chloro-3-methoxyphenyl)methanone]	150 nM
O=C(c1cccc(N2CCOCC2)c1F)N1CCN2C[C@@](O)(c3ccc(Cl)cc3)CC[C@@H]2C1 [Example 21, [(7S,9aR)-7-(4-chlorophenyl)-7-hydroxy-3,4,6,8,9,9a-hexahydro-1H-pyrido[1,2-a]pyrazin-2-yl]-(2-fluoro-3-morpholino-phenyl)methanone]	351 nM
CC(C)(C)OC(=O)N1CCN(c2cccc(C(=O)N3CCN4C[C@@](O)(c5ccc(Cl)cc5)CC[C@@H]4C3)c2F)CC1 [Example 22, tert-butyl 4-[3-[(7S,9aR)-7-(4-chlorophenyl)-7-hydroxy-3,4,6,8,9,9a-hexahydro-1H-pyrido[1,2-a]pyrazine-2-carbonyl]-2-fluorophenyl]piperazine-1-carboxylate]	838 nM
O=C(c1cccc(N2CCNCC2)c1F)N1CCN2C[C@@](O)(c3ccc(Cl)cc3)CC[C@@H]2C1 [Example 23, [(7S,9aR)-7-(4-chlorophenyl)-7-hydroxy-3,4,6,8,9,9a-hexahydro-1H-pyrido[1,2-a]pyrazin-2-yl]-(2-fluoro-3-piperazin-1-ylphenyl)methanone]	656 nM
O=C(c1cccc(/C=C/c2ccccc2)c1Br)N1CCN2C[C@@H](c3ccc(Cl)cc3)CC[C@@H]2C1 [Example 28, [(7R,9aR)-7-(4-chlorophenyl)-1,3,4,6,7,8,9,9a-octahydropyrido[1,2-a]pyrazin-2-yl]-[2-bromo-3-[(E)-2-phenylethenyl]phenyl]methanone]	169 nM
O=C(c1cccc(O)c1Cl)N1CCN2C[C@@](O)(c3ccc(Cl)cc3)CC[C@@H]2C1 [Example 33, [(7S,9aR)-7-(4-chlorophenyl)-7-hydroxy-3,4,6,8,9,9a-hexahydro-1H-pyrido[1,2-a]pyrazin-2-yl]-(2-chloro-3-hydroxyphenyl)methanone]	159 nM
O=C1CN(c2cccc(C(=O)N3CCN4C[C@@](O)(c5ccc(Cl)cc5)CC[C@@H]4C3)c2F)CCN1 [Example 34, 4-(3-((7S,9aR)-7-(4-chlorophenyl)-7-hydroxyoctahydro-2H-pyrido[1,2-a]pyrazine-2-carbonyl)-2-fluorophenyl)piperazin-2-one]	145 nM
O=C1CN(c2cccc(C(=O)N3CCN4C[C@@](O)(c5ccc(Cl)cc5)CC[C@@H]4C3)c2Cl)CCN1 [Example 35, 4-[3-[(7S,9aR)-7-(4-chlorophenyl)-7-hydroxy-3,4,6,8,9,9a-hexahydro-1H-pyrido[1,2-a]pyrazine-2-carbonyl]-2-chlorophenyl]piperazin-2-one]	86 nM
O=C(c1cccc(N2CCC23COC3)c1Cl)N1CCN2C[C@@](O)(c3ccc(Cl)cc3)CC[C@@H]2C1 [Example 36, [(7S,9aR)-7-(4-chlorophenyl)-7-hydroxy-3,4,6,8,9,9a-hexahydro-1H-pyrido[1,2-a]pyrazin-2-yl]-[2-chloro-3-(6-oxa-1-azaspiro[3.3]heptan-1-yl)phenyl]methanone]	76 nM
O=C(c1cccc(F)c1Cl)N1CCN2C[C@@](O)(c3ccc(C(F)(F)F)cn3)CC[C@@H]2C1 [Example 41, [(7R,9aR)-7-hydroxy-7-[5-(trifluoromethyl)pyridin-2-yl]-3,4,6,8,9,9a-hexahydro-1H-pyrido[1,2-a]pyrazin-2-yl]-(2-chloro-3-fluorophenyl)methanone]	392 nM
O=C(c1cccc(F)c1Cl)N1CCN2C[C@](O)(c3ccc(C(F)(F)F)cn3)CC[C@H]2C1 [Example 42, [(7S,9aS)-7-hydroxy-7-[5-(trifluoromethyl)pyridin-2-yl]-3,4,6,8,9,9a-hexahydro-1H-pyrido[1,2-a]pyrazin-2-yl]-(2-chloro-3-fluorophenyl)methanone]	4820 nM
CC1(O)CN(c2cccc(C(=O)N3CCN4C[C@@](O)(c5ccc(Cl)cc5)CC[C@@H]4C3)c2Cl)C1 [Example 46, [(7S,9aR)-7-(4-chlorophenyl)-7-hydroxy-3,4,6,8,9,9a-hexahydro-1H-pyrido[1,2-a]pyrazin-2-yl]-[2-chloro-3-(3-hydroxy-3-methylazetidin-1-yl)phenyl]methanone]	234 nM

Stronger by IC50, values ahead:

IC50	SMILES
72.7 nM	O=C(c1cccc(N2CC(O)C2)c1Cl)N1CCN2C[C@@](O)(c3ccc(C(F)(F)F)cn3)CC[C@@H]2C1 [Example 32, [(7R,9aR)-7-hydroxy-7-[5-(trifluoromethyl)pyridin-2-yl]-3,4,6,8,9,9a-hexahydro-1H-pyrido[1,2-a]pyrazin-2-yl]-[2-chloro-3-(3-hydroxyazetidin-1-yl)phenyl]methanone]
66.8 nM	O=C(c1cccc(N2CC[C@@H](O)C2)c1Cl)N1CCN2C[C@@](O)(c3ccc(Cl)cc3)CC[C@@H]2C1 [Example 45, [(7S,9aR)-7-(4-chlorophenyl)-7-hydroxy-3,4,6,8,9,9a-hexahydro-1H-pyrido[1,2-a]pyrazin-2-yl]-[2-chloro-3-[(3R)-3-hydroxypyrrolidin-1-yl]phenyl]methanone]
38.5 nM	O=C(c1cccc(N2CC(O)C2)c1F)N1CCN2C[C@@](O)(c3ccc(F)c(Cl)c3)CC[C@@H]2C1 [Example 39, [(7S,9aR)-7-(3-chloro-4-fluorophenyl)-7-hydroxy-3,4,6,8,9,9a-hexahydro-1H-pyrido[1,2-a]pyrazin-2-yl]-[2-fluoro-3-(3-hydroxyazetidin-1-yl)phenyl]methanone]
20.7 nM	O=C(c1cccc(N2CC[C@H](O)C2)c1Cl)N1CCN2C[C@@](O)(c3ccc(F)c(Cl)c3)CC[C@@H]2C1 [Example 43, [(7S,9aR)-7-(3-chloro-4-fluorophenyl)-7-hydroxy-3,4,6,8,9,9a-hexahydro-1H-pyrido[1,2-a]pyrazin-2-yl]-[2-chloro-3-[(3S)-3-hydroxypyrrolidin-1-yl]phenyl]methanone]
18.5 nM	C=CC(=O)Nc1ccc(/C=C/c2cccc(C(=O)N3CCN4C[C@@H](c5ccc(Cl)cc5)CC[C@@H]4C3)c2Br)cc1 [Example 30, N-[4-[(E)-2-[3-[(7R,9aR)-7-(4-chlorophenyl)-1,3,4,6,7,8,9,9a-octahydropyrido[1,2-a]pyrazine-2-carbonyl]-2-bromophenyl]ethenyl]phenyl]prop-2-enamide]
15.4 nM	O=C(c1cccc(N2CC[C@@H](O)C2)c1Cl)N1CCN2C[C@@](O)(c3ccc(F)c(Cl)c3)CC[C@@H]2C1 [Example 44, [(7S,9aR)-7-(3-chloro-4-fluorophenyl)-7-hydroxy-3,4,6,8,9,9a-hexahydro-1H-pyrido[1,2-a]pyrazin-2-yl]-[2-chloro-3-[(3R)-3-hydroxypyrrolidin-1-yl]phenyl]methanone]
11.5 nM	O=C(c1cccc(-c2ccn[nH]2)c1Cl)N1CCN2C[C@@](O)(c3ccc(C(F)(F)F)cn3)CC[C@@H]2C1 [Example 20, [(7R,9aR)-7-hydroxy-7-[5-(trifluoromethyl)pyridin-2-yl]-3,4,6,8,9,9a-hexahydro-1H-pyrido[1,2-a]pyrazin-2-yl]-[2-chloro-3-(1H-pyrazol-5-yl)phenyl]methanone]
10.5 nM	O=C(c1cccc(/C=C\c2ccccc2)c1Br)N1CCN2C[C@@H](c3ccc(Cl)cc3)CC[C@@H]2C1 [Example 27, [(7R,9aR)-7-(4-chlorophenyl)-1,3,4,6,7,8,9,9a-octahydropyrido[1,2-a]pyrazin-2-yl]-[2-bromo-3-[(Z)-2-phenylethenyl]phenyl]methanone]
10.3 nM	Cc1cn[nH]c1-c1cccc(C(=O)N2CCN3C[C@@](O)(c4ccc(Cl)cc4)CC[C@@H]3C2)c1Cl [Example 16, [(7S,9aR)-7-(4-chlorophenyl)-7-hydroxy-3,4,6,8,9,9a-hexahydro-1H-pyrido[1,2-a]pyrazin-2-yl]-[2-chloro-3-(4-methyl-1H-pyrazol-5-yl)phenyl]methanone]
7.62 nM	CC(C)(C)OC(=O)Nc1ccc(/C=C/c2cccc(C(=O)N3CCN4C[C@@H](c5ccc(Cl)cc5)CC[C@@H]4C3)c2Br)cc1 [Example 29]
6.91 nM	O=C(c1cccc(N2CC(O)C2)c1Cl)N1CCN2C[C@@](O)(c3ccc(F)c(Cl)c3)CC[C@@H]2C1 [Example 40]
